Patent US8802597B2, “Herbicidal pyrimidines” (E I du Pont de Nemours and Company, priority 2003, dated 2014)
Like-named read-outs stand apart in the source and are kept apart here.

Tests used:
Assay in all cases: Test C pre/postemergence
Assay type in all cases: in vivo
soybean (Glycine max) = conditions: Glycine max; for plant injury at 62 g/ha: 62 g ai/ha; for plant injury at 125 g/ha: 125 g ai/ha
Outline: (§1)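 Percent control is a visual rating (0 none, 100 complete) taken against untreated plants after 12 to 14 days of greenhouse growth. Applications were made preemergence to seeded pots and postemergence to plants at the 1- to 4-leaf stage, in a non-phytotoxic surfactant-containing solvent.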

kochia (Kochia scoparia) = conditions: Bassia scoparia; for pest or weed control at 16 g/ha: 16 g ai/ha; for pest or weed control at 31 g/ha: 31 g ai/ha; for pest or weed control at 62 g/ha: 62 g ai/ha; for pest or weed control at 125 g/ha: 125 g ai/ha
Outline: as §1

[1] = test system: johnsongrass (Sorghum halepense); conditions: Sorghum halepense; for pest or weed control at 16 g/ha: 16 g ai/ha; for pest or weed control at 31 g/ha: 31 g ai/ha; for pest or weed control at 62 g/ha: 62 g ai/ha; for pest or weed control at 125 g/ha: 125 g ai/ha
Outline: as §1

[2] = test system: Surinam grass (Brachiaria decumbens); conditions: Urochloa decumbens; for pest or weed control at 125 g/ha: 125 g ai/ha; for pest or weed control at 16 g/ha: 16 g ai/ha; for pest or weed control at 31 g/ha: 31 g ai/ha; for pest or weed control at 62 g/ha: 62 g ai/ha
Outline: as §1

[3] = test system: woolly cupgrass (Eriochloa villosa); conditions: Eriochloa villosa; for pest or weed control at 16 g/ha: 16 g ai/ha; for pest or weed control at 31 g/ha: 31 g ai/ha; for pest or weed control at 62 g/ha: 62 g ai/ha; for pest or weed control at 125 g/ha: 125 g ai/ha
Outline: as §1

[4] = test system: crabgrass (Digitaria sanguinalis); conditions: Digitaria sanguinalis; for pest or weed control at 16 g/ha: 16 g ai/ha; for pest or weed control at 31 g/ha: 31 g ai/ha; for pest or weed control at 62 g/ha: 62 g ai/ha; for pest or weed control at 125 g/ha: 125 g ai/ha
Outline: as §1

[5] = post-emergence, Postemergence, scale 0 to 100 (0 no effect, 100 complete control), read-out: Soybean plant response rating
[6] = post-emergence, Postemergence, read-out: Plant response rating (scale of 0 to 100), Kochia
[7] = post-emergence, Postemergence, scale 0 to 100 (0 no effect, 100 complete control), read-out: Kochia plant response rating
[8] = pre-emergence, Preemergence, scale 0 to 100, 0 no effect, 100 complete control, read-out: Plant response rating, Kochia
[9] = post-emergence, Postemergence, read-out: Plant response rating (scale of 0 to 100), Johnsongrass
[10] = post-emergence, Postemergence, scale 0 to 100 (0 no effect, 100 complete control), read-out: Johnsongrass plant response rating
[11] = pre-emergence, Preemergence, scale 0 to 100, 0 no effect, 100 complete control, read-out: Plant response rating, Johnsongrass
[12] = post-emergence, Postemergence, scale 0 to 100 (0 no effect, 100 complete control), read-out: Surinam Grass plant response rating
[13] = post-emergence, Postemergence, read-out: Plant response rating (scale of 0 to 100), Surinam Grass
[14] = pre-emergence, Preemergence, scale 0 to 100, 0 no effect, 100 complete control, read-out: Plant response rating, Surinam Grass
[15] = post-emergence, Postemergence, read-out: Plant response rating (scale of 0 to 100), Cupgrass, Woolly
[16] = post-emergence, Postemergence, scale 0 to 100 (0 no effect, 100 complete control), read-out: Cupgrass, Woolly plant response rating
[17] = pre-emergence, Preemergence, scale 0 to 100, 0 no effect, 100 complete control, read-out: Plant response rating, Cupgrass, Woolly
[18] = post-emergence, Postemergence, read-out: Plant response rating (scale of 0 to 100), Crabgrass
[19] = post-emergence, Postemergence, scale 0 to 100 (0 no effect, 100 complete control), read-out: Crabgrass plant response rating
[20] = pre-emergence, Preemergence, scale 0 to 100, 0 no effect, 100 complete control, read-out: Plant response rating, Crabgrass

**Q.** Which results are given for `COC(=O)c1nc(C2CC2)nc(N)c1F` [Compound 25]?
**A.** plant injury at 31 g/ha (soybean (Glycine max); post-emergence, Postemergence, 31 g ai/ha, read-out: Plant response rating (scale of 0 to 100), Soybean): 90%; plant injury at 62 g/ha (soybean (Glycine max); [5]): 90%; plant injury at 125 g/ha (soybean (Glycine max); [5]): 90%; plant injury at 16 g/ha (soybean (Glycine max); pre-emergence, Preemergence, 16 g ai/ha, scale 0 to 100, 0 no effect, 100 complete control, read-out: Plant response rating, Soybean): 30%; plant injury at 62 g/ha (soybean (Glycine max); pre-emergence, Preemergence, scale 0 to 100, 0 no effect, 100 complete control, read-out: Plant response rating, Soybean): 60%; plant injury at 125 g/ha (soybean (Glycine max); pre-emergence, Preemergence, scale 0 to 100, read-out: Plant response rating, Soybean): 65%; pest or weed control at 16 g/ha (kochia (Kochia scoparia); [6]): 10%; pest or weed control at 31 g/ha (kochia (Kochia scoparia); [6]): 80%; pest or weed control at 62 g/ha (kochia (Kochia scoparia); [7]): 85%; pest or weed control at 125 g/ha (kochia (Kochia scoparia); [7]): 85%; pest or weed control at 16 g/ha (kochia (Kochia scoparia); [8]): 0%; pest or weed control at 31 g/ha (kochia (Kochia scoparia); [8]): 0%; pest or weed control at 62 g/ha (kochia (Kochia scoparia); [8]): 5%; pest or weed control at 125 g/ha (kochia (Kochia scoparia); pre-emergence, Preemergence, scale 0 to 100, read-out: Plant response rating, Kochia): 70%; pest or weed control at 16 g/ha [1, 9]: 0%; pest or weed control at 31 g/ha [1, 9]: 10%; pest or weed control at 62 g/ha [1, 10]: 10%; pest or weed control at 125 g/ha [1, 10]: 20%; pest or weed control at 16 g/ha [1, 11]: 0%; pest or weed control at 31 g/ha [1, 11]: 0%; pest or weed control at 62 g/ha [1, 11]: 0%; pest or weed control at 125 g/ha ([1]; pre-emergence, Preemergence, scale 0 to 100, read-out: Plant response rating, Johnsongrass): 0%; pest or weed control at 125 g/ha [2, 12]: 5%; pest or weed control at 16 g/ha [2, 13]: 0%; pest or weed control at 31 g/ha [2, 13]: 0%; pest or weed control at 62 g/ha [2, 12]: 0%; pest or weed control at 16 g/ha [2, 14]: 0%; pest or weed control at 31 g/ha [2, 14]: 0%; pest or weed control at 62 g/ha [2, 14]: 0%; pest or weed control at 125 g/ha ([2]; pre-emergence, Preemergence, scale 0 to 100, read-out: Plant response rating, Surinam Grass): 40%; pest or weed control at 16 g/ha [3, 15]: 0%; pest or weed control at 31 g/ha [3, 15]: 0%; pest or weed control at 62 g/ha [3, 16]: 0%; pest or weed control at 125 g/ha [3, 16]: 30%; pest or weed control at 16 g/ha [3, 17]: 0%; pest or weed control at 31 g/ha [3, 17]: 0%; pest or weed control at 62 g/ha [3, 17]: 0%; pest or weed control at 125 g/ha ([3]; pre-emergence, Preemergence, scale 0 to 100, read-out: Plant response rating, Cupgrass, Woolly): 50%; pest or weed control at 16 g/ha [4, 18]: 0%; pest or weed control at 31 g/ha [4, 18]: 0%; pest or weed control at 62 g/ha [4, 19]: 30%; pest or weed control at 125 g/ha [4, 19]: 50%; pest or weed control at 16 g/ha [4, 20]: 0%; pest or weed control at 31 g/ha [4, 20]: 0%; pest or weed control at 62 g/ha [4, 20]: 0%; pest or weed control at 125 g/ha ([4]; pre-emergence, Preemergence, scale 0 to 100, read-out: Plant response rating, Crabgrass): 0%
